Data reported in patent US20190307754A1, “PDE9 INHIBITORS FOR TREATMENT OF PERIPHERAL DISEASES” (IMARA, INC., priority 2016, published 2019).
Marks after values point to notes of the source that are not given here.

Assay: Pharmacokinetics of single oral and IV dose in CD1 mice
Type: in vivo
Protocol: Blood samples were taken at 2 minutes (IV only), then 8, 15, 30 minutes, and 1, 2, 4, 8, and 24 hours after dosing and analyzed for key PK parameters. In the rats, brain samples were taken at 24 hours and analyzed for Compound P3.1. To evaluate the penetration of Compound P3.1 across the blood-brain barrier (BBB), 10 additional rats received IV Compound P3.1 3 mg/kg and plasma and brain concentrations of Compound P3.1 were determined from 2 animals at 15 minutes, 30 minutes and 1, 2, and 4 hours after dosing.

[1] = mouse, blood, CD1 mice, 3 mg/kg IV
[2] = mouse, blood, CD1 mice, 10 mg/kg oral

C[C@@H]1CN(Cc2ncccn2)C[C@H]1c1cn2c(C3CCOCC3)ncc2c(=O)[nH]1 (single isomer, unassigned) [Compound P3.1]
bioavailability (CD1, mouse, plasma, po, 10 mg/kg, read-out: oral bioavailability Flast): 44.6% | Cl_obs (CD1 mice, 3 mg/kg IV): 30.7 mL/min/kg | Flast (CD1 mice, 10 mg/kg oral): 63.4% | Vss obs (CD1 mice, 10 mg/kg oral): 63.4** L/kg | continuously exposed out to (mice, 10 mg/kg oral): 4 h | AUC(0-t) [1]: 1630 ng·h/mL | C0 [1]: 4430 ng/mL | MRT [1]: 26.4 min | half-life [1]: 37.8 min | Vd (mouse, blood, CD1 mice, 3 mg/kg IV, read-out: Vss obs): 0.89 L/kg | AUC(0-t) [2]: 3440 ng·h/mL | C0 [2]: 2750 ng/mL | Tmax [2]: 30 min | half-life [2]: 48.6 min
